# Laboratory results as given in ChEMBL document CHEMBL1201862, “PubChem BioAssay data set” (2004).
#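 These data come from cells grown in 96-well plates and exposed to compound for 48 hours at five concentrations. At the GI50, growth is halved.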 Calls of active or inactive are those of the source. No stated cut-off is given here; in the data, active = GI50 up to about 1.1 µM and inactive = higher.
# Legend:
# Experiment in all cases: NCI-60 cell line screen, 48 h
# 786-0 = system: 786-0
# A498 = system: A498
# CAKI-1 = system: CAKI-1
# COLO 205 = system: COLO 205
# HOP-62 = system: HOP-62
# HT-29 = system: HT-29
# KM12 = system: KM12
# LOX IMVI = system: LOX IMVI
# MCF7 = system: MCF7
# MDA-N = system: MDA-N
# NCI-H23 = system: NCI-H23
# NCI-H460 = system: NCI-H460
# OVCAR-5 = system: OVCAR-5
# SF-268 = system: SF-268
# SF-295 = system: SF-295
# SN12C = system: SN12C
# SNB-19 = system: SNB-19
# SW-620 = system: SW-620
# UACC-257 = system: UACC-257
# SR = system: SR
Structure (SMILES),GI50 (786-0),GI50 (A498),GI50 (CAKI-1),GI50 (COLO 205),GI50 (HOP-62),GI50 (HT-29),GI50 (KM12),GI50 (LOX IMVI),GI50 (MCF7),GI50 (MDA-N),GI50 (NCI-H23),GI50 (NCI-H460),GI50 (OVCAR-5),GI50 (SF-268),GI50 (SF-295),GI50 (SN12C),GI50 (SNB-19),GI50 (SW-620),GI50 (UACC-257),GI50 (SR)
COC(=O)[C@]1(C)CC[C@]2(C)CC[C@]3(C)C4[C@H]5Oc6c(cc7c(c6C)CCC6[C@@]7(C)CC[C@@]7(C)C8[C@](C)(CCC[C@@]8(C)C(=O)OC)CC[C@]67C)O[C@H]5c5c(cc6c(c5C)O[C@@]5(C)C7=CC=C8[C@@](C)(CC[C@@]9(C)[C@@H]%10C[C@](C)(C(=O)OC)CC[C@]%10(C)CC[C@]89C)C7=CC(=O)[C@@]5(O)O6)[C@]4(C)CC[C@@]3(C)C2C1 (stereo partly specified),1.86 µM (inactive),> 12.5 µM (inactive),6.22 µM (inactive),6.35 µM (inactive),8.51 µM (inactive),3.66 µM (inactive),> 12.5 µM (inactive),2.27 µM (inactive),3.11 µM (inactive),1.93 µM (inactive),8.97 µM (inactive),8.91 µM (inactive),9.79 µM (inactive),4.5 µM (inactive),> 12.5 µM (inactive),2.35 µM (inactive),5.05 µM (inactive),2.53 µM (inactive),2.83 µM (inactive),–
Cc1cc2c(cc1Cl)SC(N/N=C(\N)c1ccc(Cl)cc1)=NS2(=O)=O,90.8 µM (inactive),32.9 µM (inactive),> 100 µM (inactive),42.3 µM (inactive),> 100 µM (inactive),52.8 µM (inactive),35.2 µM (inactive),43 µM (inactive),14.1 µM (inactive),–,30.7 µM (inactive),52.7 µM (inactive),> 100 µM (inactive),45.6 µM (inactive),71.3 µM (inactive),78.3 µM (inactive),77.4 µM (inactive),25.8 µM (inactive),62.7 µM (inactive),–
CCCC[C@H]1CCN2C[C@@H](O)[C@@H](O)[C@H]2[C@@H]1O,> 100 µM (inactive),> 100 µM (inactive),> 100 µM (inactive),> 100 µM (inactive),–,> 100 µM (inactive),> 100 µM (inactive),> 100 µM (inactive),> 100 µM (inactive),> 100 µM (inactive),> 100 µM (inactive),> 100 µM (inactive),> 100 µM (inactive),> 100 µM (inactive),> 100 µM (inactive),> 100 µM (inactive),> 100 µM (inactive),> 100 µM (inactive),> 100 µM (inactive),–
CCOC(=O)c1nc2c(Cl)c3ncccc3cc2[nH]c1=O,35.6 µM (inactive),79.6 µM (inactive),66.5 µM (inactive),> 100 µM (inactive),25.6 µM (inactive),38 µM (inactive),31.6 µM (inactive),–,30.3 µM (inactive),–,29.3 µM (inactive),16.8 µM (inactive),61.7 µM (inactive),44.6 µM (inactive),22.8 µM (inactive),–,48.1 µM (inactive),43.3 µM (inactive),46.7 µM (inactive),8.73 µM (inactive)
CN(C)CCCNC(=O)CNC(=O)c1cc(NC(=O)c2cc(NC(=O)c3cc(NC(=O)CCNC(=O)c4cc(NC(=O)c5cc(NC(=O)c6nccn6C)cn5C)cn4C)cn3C)cn2C)cn1C,> 100 µM (inactive),> 100 µM (inactive),> 100 µM (inactive),> 100 µM (inactive),> 100 µM (inactive),> 100 µM (inactive),64.6 µM (inactive),> 100 µM (inactive),> 100 µM (inactive),> 100 µM (inactive),> 100 µM (inactive),> 100 µM (inactive),> 100 µM (inactive),> 100 µM (inactive),> 100 µM (inactive),> 100 µM (inactive),> 100 µM (inactive),> 100 µM (inactive),> 100 µM (inactive),–
Cc1nc(Nc2nc3ccccc3[nH]2)nc(Cl)c1CCCl,> 100 µM (inactive),> 100 µM (inactive),> 100 µM (inactive),> 100 µM (inactive),–,> 100 µM (inactive),> 100 µM (inactive),–,–,> 100 µM (inactive),> 100 µM (inactive),> 100 µM (inactive),–,95.7 µM (inactive),–,> 100 µM (inactive),> 100 µM (inactive),> 100 µM (inactive),> 100 µM (inactive),> 100 µM (inactive)
CC(=O)c1cc2c(s1)C(=O)c1ccsc1C2=O,1.92 µM (inactive),7.24 µM (inactive),2.12 µM (inactive),19.1 µM (inactive),0.491 µM (active),1.85 µM (inactive),1.61 µM (inactive),0.0414 µM (active),0.293 µM (active),0.0802 µM (active),0.167 µM (active),–,0.74 µM (active),0.301 µM (active),0.16 µM (active),0.182 µM (active),0.294 µM (active),0.275 µM (active),0.132 µM (active),–
Cc1ccc(S(=O)(=O)N2C[C@](O)(c3ccccc3)[C@H]2C)cc1,> 100 µM (inactive),> 100 µM (inactive),> 100 µM (inactive),> 100 µM (inactive),> 100 µM (inactive),> 100 µM (inactive),> 100 µM (inactive),> 100 µM (inactive),> 100 µM (inactive),> 100 µM (inactive),> 100 µM (inactive),> 100 µM (inactive),> 100 µM (inactive),> 100 µM (inactive),> 100 µM (inactive),> 100 µM (inactive),> 100 µM (inactive),> 100 µM (inactive),> 100 µM (inactive),–
S=c1[nH]c2c(Cl)c(Cl)c(Cl)c(Cl)c2[nH]1,26.2 µM (inactive),22.2 µM (inactive),25.7 µM (inactive),17.2 µM (inactive),25.1 µM (inactive),24 µM (inactive),15.5 µM (inactive),8.69 µM (inactive),16.8 µM (inactive),17.3 µM (inactive),29.2 µM (inactive),19.4 µM (inactive),25.8 µM (inactive),12.1 µM (inactive),17.5 µM (inactive),20.6 µM (inactive),27.9 µM (inactive),19.8 µM (inactive),19.4 µM (inactive),–
N#CCCN(CCN(CCN(C(=O)Nc1ccccc1)c1ccccc1)C(=O)Nc1ccccc1)C(=O)Nc1ccccc1,> 100 µM (inactive),> 100 µM (inactive),> 100 µM (inactive),> 100 µM (inactive),> 100 µM (inactive),–,2.57 µM (inactive),> 100 µM (inactive),24.7 µM (inactive),> 100 µM (inactive),> 100 µM (inactive),–,> 100 µM (inactive),> 100 µM (inactive),> 100 µM (inactive),> 100 µM (inactive),> 100 µM (inactive),> 100 µM (inactive),> 100 µM (inactive),–
CC1=CC(=O)N(n2c(-c3ccccc3)n[nH]c2=O)C1=O,> 100 µM (inactive),–,> 100 µM (inactive),> 100 µM (inactive),> 100 µM (inactive),> 100 µM (inactive),> 100 µM (inactive),> 100 µM (inactive),> 100 µM (inactive),–,> 100 µM (inactive),> 100 µM (inactive),> 100 µM (inactive),> 100 µM (inactive),> 100 µM (inactive),> 100 µM (inactive),> 100 µM (inactive),> 100 µM (inactive),> 100 µM (inactive),–
